pIC50, pKd: −log10 of the molar value. Where two headings read alike, the source gives them in different places. Marks after values point to notes of the source that are not given here.
Tests used:
[1] = Madin-Darby canine kidney permeability assay
[2] = Pharmacokinetics in rats after i.v. and oral administration
PTGS2 = molecular target: T1, PTGS2 (Homo sapiens, UniProt P35354); assay: safety panel assay, PTGS2; assay type: biochemical; conditions: Table 2, PTGS2; accurate to ±20%
T1 sequence (P35354 18-604): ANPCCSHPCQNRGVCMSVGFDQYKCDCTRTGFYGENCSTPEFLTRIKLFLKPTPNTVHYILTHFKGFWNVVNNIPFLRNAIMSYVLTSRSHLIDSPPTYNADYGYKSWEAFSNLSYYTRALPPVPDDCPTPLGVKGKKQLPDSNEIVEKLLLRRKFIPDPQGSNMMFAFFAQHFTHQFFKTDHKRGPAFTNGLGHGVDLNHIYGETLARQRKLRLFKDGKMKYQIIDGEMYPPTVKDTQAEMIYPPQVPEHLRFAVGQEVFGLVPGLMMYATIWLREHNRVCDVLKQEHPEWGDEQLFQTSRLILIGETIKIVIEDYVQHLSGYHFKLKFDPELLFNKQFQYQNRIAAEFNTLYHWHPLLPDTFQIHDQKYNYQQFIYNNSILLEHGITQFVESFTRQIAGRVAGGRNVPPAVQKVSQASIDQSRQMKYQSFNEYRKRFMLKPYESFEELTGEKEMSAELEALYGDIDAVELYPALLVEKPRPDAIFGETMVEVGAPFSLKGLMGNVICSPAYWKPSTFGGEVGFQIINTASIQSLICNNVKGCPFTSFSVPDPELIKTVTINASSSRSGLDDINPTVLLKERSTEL

SLCO2B1 = molecular target: T2, SLCO2B1 (Homo sapiens, UniProt O94956); assay: in vitro transporter inhibition, SLCO2B1; assay type: biochemical; conditions: Table 1, predicted target SLCO2B1
T2 sequence (O94956 1-709): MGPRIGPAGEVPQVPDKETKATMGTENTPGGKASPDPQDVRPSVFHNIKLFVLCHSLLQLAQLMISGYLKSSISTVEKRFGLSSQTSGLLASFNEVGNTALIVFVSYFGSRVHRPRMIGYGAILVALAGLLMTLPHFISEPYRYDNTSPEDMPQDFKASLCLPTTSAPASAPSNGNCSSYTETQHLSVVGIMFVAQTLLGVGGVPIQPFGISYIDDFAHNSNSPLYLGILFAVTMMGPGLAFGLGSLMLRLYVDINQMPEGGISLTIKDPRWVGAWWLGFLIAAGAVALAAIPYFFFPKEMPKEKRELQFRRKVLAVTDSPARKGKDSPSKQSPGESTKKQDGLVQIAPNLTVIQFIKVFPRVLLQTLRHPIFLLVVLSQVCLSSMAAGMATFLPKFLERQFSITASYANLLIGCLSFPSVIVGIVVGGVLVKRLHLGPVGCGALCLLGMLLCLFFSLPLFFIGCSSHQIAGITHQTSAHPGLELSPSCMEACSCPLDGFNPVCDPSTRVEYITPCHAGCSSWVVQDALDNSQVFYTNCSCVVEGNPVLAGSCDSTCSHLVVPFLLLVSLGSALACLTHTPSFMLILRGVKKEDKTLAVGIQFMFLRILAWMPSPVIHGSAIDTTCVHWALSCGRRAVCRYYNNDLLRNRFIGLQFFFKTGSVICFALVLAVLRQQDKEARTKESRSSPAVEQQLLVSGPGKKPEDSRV

SLCO1B1 = molecular target: T3, SLCO1B1 (Homo sapiens, UniProt Q9Y6L6); assay: in vitro transporter assay, SLCO1B1
T3 sequence (Q9Y6L6 1-691): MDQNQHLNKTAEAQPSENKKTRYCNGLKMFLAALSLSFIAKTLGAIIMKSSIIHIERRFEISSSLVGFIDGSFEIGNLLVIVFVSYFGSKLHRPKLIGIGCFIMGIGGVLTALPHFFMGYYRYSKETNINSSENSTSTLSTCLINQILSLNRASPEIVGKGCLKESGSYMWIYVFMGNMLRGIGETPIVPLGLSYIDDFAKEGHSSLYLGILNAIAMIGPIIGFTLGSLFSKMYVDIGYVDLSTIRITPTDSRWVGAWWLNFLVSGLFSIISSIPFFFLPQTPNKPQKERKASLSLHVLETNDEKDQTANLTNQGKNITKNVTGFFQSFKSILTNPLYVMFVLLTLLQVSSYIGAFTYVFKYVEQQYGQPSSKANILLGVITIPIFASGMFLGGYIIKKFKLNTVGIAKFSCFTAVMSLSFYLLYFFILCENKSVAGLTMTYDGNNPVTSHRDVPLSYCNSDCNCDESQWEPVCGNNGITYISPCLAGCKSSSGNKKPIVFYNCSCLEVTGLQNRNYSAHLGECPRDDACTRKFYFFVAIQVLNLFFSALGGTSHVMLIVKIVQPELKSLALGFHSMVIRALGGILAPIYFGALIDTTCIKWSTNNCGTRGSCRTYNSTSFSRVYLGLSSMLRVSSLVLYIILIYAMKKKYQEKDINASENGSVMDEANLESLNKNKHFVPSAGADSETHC

[3] = rat, in vivo, 1 mg/kg
PDE4D = PDE4D (Homo sapiens, UniProt Q08499); assay: in vitro assay, PDE4D; assay type: biochemical
Sequence of PDE4D (Q08499 whole entry): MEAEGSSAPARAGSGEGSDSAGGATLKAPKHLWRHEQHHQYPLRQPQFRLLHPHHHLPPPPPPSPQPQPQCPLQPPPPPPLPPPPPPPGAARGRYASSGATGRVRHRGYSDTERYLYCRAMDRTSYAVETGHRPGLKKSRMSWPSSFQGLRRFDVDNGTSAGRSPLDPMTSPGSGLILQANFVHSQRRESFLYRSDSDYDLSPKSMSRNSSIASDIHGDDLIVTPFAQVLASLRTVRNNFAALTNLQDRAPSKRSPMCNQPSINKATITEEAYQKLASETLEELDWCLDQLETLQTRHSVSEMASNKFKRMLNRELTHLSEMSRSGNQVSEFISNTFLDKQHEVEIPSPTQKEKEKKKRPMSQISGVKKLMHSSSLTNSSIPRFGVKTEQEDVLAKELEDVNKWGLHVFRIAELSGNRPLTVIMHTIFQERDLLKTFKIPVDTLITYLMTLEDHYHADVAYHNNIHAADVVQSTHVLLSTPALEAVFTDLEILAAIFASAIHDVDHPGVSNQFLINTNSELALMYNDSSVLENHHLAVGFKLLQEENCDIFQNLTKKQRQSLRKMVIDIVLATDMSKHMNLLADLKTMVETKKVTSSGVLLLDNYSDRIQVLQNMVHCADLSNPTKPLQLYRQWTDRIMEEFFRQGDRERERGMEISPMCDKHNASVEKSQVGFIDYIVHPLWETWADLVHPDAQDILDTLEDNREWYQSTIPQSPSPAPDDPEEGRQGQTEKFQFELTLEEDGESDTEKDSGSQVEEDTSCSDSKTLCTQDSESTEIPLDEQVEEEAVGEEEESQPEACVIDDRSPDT

[4] = rat, in vivo, cited from earlier work
[5] = tested on: BioMAP Diversity PLUS panel; assay: BioMAP Diversity PLUS panel of cell-based systems
DRD5 = DRD5 (Homo sapiens, UniProt P21918); assay: in vitro assay, DRD5; assay type: binding
Sequence of DRD5 (P21918 whole entry, species assumed): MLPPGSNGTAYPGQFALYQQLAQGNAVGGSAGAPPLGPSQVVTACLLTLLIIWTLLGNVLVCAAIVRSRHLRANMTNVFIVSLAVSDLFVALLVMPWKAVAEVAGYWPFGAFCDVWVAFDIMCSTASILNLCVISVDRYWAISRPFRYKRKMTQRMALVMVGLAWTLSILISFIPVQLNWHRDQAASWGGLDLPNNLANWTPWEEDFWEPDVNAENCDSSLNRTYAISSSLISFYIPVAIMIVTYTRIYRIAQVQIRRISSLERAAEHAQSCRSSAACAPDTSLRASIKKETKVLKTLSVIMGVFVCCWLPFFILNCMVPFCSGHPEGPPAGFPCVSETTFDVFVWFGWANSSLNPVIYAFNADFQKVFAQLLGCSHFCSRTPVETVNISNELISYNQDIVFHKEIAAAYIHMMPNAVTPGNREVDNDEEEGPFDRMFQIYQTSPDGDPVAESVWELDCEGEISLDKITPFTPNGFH

[6] = human adults after repeated vaccination ref 43; cited from earlier work
DRD3 = DRD3 (Homo sapiens, UniProt P35462); conditions: for pKd: read-out: dopamine D3 receptor Kd
Sequence of DRD3 (P35462 whole entry, species assumed): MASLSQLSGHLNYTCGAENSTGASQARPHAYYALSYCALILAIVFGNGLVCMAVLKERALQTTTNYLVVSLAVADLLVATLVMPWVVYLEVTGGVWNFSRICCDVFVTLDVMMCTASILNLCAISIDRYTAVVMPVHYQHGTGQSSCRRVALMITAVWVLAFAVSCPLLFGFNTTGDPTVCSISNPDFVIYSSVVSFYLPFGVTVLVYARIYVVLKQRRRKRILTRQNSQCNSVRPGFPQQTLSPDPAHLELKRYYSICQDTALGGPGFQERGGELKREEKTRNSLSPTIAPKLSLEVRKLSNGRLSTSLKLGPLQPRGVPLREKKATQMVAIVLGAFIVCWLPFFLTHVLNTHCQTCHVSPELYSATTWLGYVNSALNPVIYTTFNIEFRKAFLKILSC

SLC18A2 = SLC18A2 (Homo sapiens, UniProt Q05940); assay: transporter inhibition, SLC18A2; assay type: biochemical; conditions: Table 2, SLC18A2; accurate to ±20%
Sequence of SLC18A2 (Q05940 whole entry, species assumed): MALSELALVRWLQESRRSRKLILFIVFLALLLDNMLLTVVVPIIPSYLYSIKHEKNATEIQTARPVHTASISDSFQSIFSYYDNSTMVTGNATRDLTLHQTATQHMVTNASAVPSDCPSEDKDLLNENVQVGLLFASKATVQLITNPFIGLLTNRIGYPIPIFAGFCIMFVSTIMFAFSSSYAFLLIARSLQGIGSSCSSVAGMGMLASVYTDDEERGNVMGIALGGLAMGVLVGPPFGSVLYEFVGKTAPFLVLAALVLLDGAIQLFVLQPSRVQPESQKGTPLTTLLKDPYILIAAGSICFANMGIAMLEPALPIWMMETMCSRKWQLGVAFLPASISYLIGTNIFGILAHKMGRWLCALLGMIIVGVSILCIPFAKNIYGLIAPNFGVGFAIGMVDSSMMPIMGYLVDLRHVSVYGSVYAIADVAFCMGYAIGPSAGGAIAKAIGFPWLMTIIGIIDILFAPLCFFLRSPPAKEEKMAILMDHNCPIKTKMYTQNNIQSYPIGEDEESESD

PDE3A = PDE3A (Homo sapiens, UniProt Q14432); assay: safety panel assay, PDE3A; assay type: biochemical; conditions: Table 2, PDE3A; accurate to ±20%
Sequence of PDE3A (Q14432 whole entry, species assumed): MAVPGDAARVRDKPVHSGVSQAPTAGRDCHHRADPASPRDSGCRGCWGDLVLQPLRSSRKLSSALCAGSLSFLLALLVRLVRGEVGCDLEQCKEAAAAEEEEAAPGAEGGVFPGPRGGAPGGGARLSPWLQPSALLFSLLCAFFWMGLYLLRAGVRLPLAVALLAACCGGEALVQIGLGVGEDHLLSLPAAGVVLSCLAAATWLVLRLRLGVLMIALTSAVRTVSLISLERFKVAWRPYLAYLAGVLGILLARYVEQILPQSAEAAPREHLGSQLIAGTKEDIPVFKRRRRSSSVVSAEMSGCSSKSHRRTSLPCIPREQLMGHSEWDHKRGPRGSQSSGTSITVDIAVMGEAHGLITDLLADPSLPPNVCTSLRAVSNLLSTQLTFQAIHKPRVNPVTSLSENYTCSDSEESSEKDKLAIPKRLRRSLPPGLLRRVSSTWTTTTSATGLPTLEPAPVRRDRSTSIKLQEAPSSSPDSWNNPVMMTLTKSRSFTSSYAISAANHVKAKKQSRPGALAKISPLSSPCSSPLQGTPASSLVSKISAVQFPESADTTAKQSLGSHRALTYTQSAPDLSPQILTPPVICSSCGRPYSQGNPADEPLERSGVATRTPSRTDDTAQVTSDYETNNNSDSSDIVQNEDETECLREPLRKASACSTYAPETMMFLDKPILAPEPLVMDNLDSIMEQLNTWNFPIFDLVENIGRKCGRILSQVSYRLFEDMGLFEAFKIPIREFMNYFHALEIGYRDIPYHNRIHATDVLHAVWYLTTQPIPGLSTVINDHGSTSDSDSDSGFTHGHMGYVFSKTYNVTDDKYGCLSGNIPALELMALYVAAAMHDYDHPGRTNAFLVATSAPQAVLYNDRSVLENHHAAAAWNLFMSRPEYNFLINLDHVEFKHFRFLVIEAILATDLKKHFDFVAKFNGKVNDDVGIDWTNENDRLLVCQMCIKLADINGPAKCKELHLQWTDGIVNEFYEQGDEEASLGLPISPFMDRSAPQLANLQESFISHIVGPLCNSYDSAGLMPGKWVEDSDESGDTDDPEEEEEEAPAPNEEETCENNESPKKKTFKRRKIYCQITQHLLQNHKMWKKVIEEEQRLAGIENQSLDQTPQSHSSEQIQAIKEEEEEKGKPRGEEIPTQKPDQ

rats = conditions: cited from earlier work
rat brain = conditions: prenatal treatment, rat brain ref 51; cited from earlier work
SLC6A2 = SLC6A2 (Homo sapiens, UniProt P23975); conditions: Table 2, SLC6A2; accurate to ±20%
ADRA1A = molecular target: T4, ADRA1A (Homo sapiens, UniProt P35348); conditions: Table 2, ADRA1A; accurate to ±20%
T4 sequence (P35348 1-466): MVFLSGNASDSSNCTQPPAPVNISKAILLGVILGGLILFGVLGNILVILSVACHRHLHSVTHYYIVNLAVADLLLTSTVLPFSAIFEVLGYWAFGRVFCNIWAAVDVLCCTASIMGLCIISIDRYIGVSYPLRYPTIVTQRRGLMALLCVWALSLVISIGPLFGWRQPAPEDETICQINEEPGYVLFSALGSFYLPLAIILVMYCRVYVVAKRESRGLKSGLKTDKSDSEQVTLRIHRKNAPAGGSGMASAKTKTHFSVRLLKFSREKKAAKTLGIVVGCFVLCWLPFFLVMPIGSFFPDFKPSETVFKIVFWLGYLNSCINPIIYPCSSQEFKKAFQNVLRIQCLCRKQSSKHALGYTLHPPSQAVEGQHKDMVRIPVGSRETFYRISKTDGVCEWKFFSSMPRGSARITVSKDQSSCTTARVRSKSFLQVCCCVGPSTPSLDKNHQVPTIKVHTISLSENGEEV

CHRM1 = molecular target: T5, CHRM1 (Homo sapiens, UniProt P11229); conditions: Table 2, CHRM1; accurate to ±20%
T5 sequence (P11229 1-460): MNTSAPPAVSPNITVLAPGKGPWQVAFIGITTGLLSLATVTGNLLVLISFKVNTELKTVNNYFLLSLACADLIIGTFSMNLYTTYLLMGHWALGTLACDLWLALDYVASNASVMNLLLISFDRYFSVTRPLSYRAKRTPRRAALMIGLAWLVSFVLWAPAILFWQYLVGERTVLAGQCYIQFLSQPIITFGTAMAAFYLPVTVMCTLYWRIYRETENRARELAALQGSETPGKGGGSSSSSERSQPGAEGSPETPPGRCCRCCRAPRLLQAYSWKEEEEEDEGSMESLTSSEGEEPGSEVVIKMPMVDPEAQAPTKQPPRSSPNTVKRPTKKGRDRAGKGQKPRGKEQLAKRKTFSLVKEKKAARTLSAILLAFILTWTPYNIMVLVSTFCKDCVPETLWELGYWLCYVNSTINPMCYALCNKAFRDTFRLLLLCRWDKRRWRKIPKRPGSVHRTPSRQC

hERG ion channel = hERG ion channel (Homo sapiens, UniProt Q12809)
Sequence of hERG ion channel (Q12809 whole entry): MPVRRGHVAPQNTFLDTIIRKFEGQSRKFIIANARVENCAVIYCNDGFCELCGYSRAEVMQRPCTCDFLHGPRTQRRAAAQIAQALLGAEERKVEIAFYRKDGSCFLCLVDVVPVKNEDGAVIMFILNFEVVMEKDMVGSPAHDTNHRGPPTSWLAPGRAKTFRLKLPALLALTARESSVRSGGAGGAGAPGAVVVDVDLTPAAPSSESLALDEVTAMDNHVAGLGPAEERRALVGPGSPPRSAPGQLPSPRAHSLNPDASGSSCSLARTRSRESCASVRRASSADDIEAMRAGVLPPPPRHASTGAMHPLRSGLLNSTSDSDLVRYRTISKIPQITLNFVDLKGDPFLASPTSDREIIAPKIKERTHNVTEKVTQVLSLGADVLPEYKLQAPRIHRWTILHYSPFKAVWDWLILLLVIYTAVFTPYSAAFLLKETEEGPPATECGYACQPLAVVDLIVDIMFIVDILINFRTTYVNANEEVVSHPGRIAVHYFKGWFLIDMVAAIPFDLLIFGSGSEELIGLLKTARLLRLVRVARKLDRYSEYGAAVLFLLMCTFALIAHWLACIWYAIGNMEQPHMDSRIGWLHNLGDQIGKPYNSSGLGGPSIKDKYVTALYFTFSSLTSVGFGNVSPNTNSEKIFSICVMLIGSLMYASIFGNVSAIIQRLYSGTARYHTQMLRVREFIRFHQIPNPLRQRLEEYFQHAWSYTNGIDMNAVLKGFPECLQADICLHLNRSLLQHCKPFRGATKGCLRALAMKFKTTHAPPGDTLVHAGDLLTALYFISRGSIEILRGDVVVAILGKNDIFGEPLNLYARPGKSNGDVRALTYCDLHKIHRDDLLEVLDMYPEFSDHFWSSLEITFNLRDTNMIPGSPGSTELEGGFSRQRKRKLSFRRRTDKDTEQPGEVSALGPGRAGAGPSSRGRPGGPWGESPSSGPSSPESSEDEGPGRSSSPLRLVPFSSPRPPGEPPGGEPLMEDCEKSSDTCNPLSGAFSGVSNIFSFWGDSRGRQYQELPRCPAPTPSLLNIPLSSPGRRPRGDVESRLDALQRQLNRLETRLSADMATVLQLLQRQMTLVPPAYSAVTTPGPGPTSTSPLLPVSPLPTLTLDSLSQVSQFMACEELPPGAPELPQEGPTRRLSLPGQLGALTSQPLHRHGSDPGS

CCCCCCCCCCCCCCCC[n+]1ccccc1 [Cetylpyridinium chloride]
Papp ([1]; dog, MDCK): < 0.5 ×10⁻⁶ cm/s | bioavailability ([2]; rat, in vivo, 1 mg/kg): 5.4% | half-life ([2]; rat, in vivo, iv, 1 mg/kg): 9.7 h | Cmax ([2]; rat, in vivo, po, 1 mg/kg): 260 nM | i.v. AUC 0–24 (d.n.) ([2]; rats, i.v. 1 mg/kg, dose normalized): 15,972 nM-hour | Oral AUC 0–last (d.n.) ([2]; rats, oral 1 mg/kg, dose normalized): 4,052 nM-hour

N[C@@H](CS)C(=O)O [Cysteine]
Ki/IC50 Or EC50 (PTGS2): 4.7 µM

O=S(=O)([O-])c1ccc(N=Nc2c(O)ccc3ccccc23)cc1.[Na+] [D&C Orange No. 4]
Ki/IC50 (SLCO2B1): 1.9 µM

Cc1ccc(N=Nc2c([O-])c(C(=O)O)cc3ccccc23)c(S(=O)(=O)[O-])c1.[Na+].[Na+] [D&C Red No. 6]
pIC50 (SLCO1B1; Table 4, target SLCO1B1): 5.51 | MDCK-LE Papp ([1]; apparent permeability, Madin-Darby canine kidney permeability assay): <1.2 ×10⁻⁶ cm/s | %F [3]: 2.5%

CCOC(=O)c1ccccc1C(=O)OCC [Diethyl phthalate]
Ki/IC50 (PDE4D; Table 1, PDE4D tested in place of SEA-predicted PDE4B and PDE1): 8.5 µM | i.v. AUC 0–24 (d.n.) ([4]; iv): 553 ^† nM-hour | t1/2 from i.v. dose ([4]; iv): 1.0 ^† hours | Cmax ([4]; po): 253 nM | Oral AUC 0–last (d.n.) ([4]; po): 350 ^† nM-hour | TNF-α modulation ([5]; BioMAP, 1.1 to 30 μM): modulated tumor necrosis factor–α (TNF-α) in a dose-dependent manner

CCCCC(CC)COC(=O)CC(C(=O)OCC(CC)CCCC)S(=O)(=O)O (stereo not drawn) [Docusate sodium]
Ki/IC50 (SLCO2B1): 2.3 µM

C[CH2][Hg] [Ethyl mercury]
Ki/IC50 Or EC50 (DRD5; Table 2, DRD5, accurate to ±20%): 0.15 µM | pKd (DRD5; read-out: dopamine D5 receptor Kd): ~6.82 | median blood concentration of ethyl mercury [6]: 0.14 ng/mL | Ki/IC50 Or EC50 (DRD3; Table 2, DRD3, accurate to ±20%): 0.21 µM | pKd (DRD3): ~6.68 | pKd (DRD3; listed as major metabolite): 6.68

CCOC(=O)c1ccc(O)cc1 [Ethylparaben]
Ki/IC50 Or EC50 (SLC18A2): 22 µM

COc1cc(S(=O)(=O)[O-])c(C)cc1N=Nc1c(O)ccc2cc(S(=O)(=O)[O-])ccc12.[Na+].[Na+] [FD&C Red No. 40]
Ki/IC50 (SLCO2B1): 4.7 µM

O=S(=O)([O-])c1ccc(N=Nc2c(O)ccc3cc(S(=O)(=O)[O-])ccc23)cc1.[Na+].[Na+] [FD&C Yellow No. 6]
Ki/IC50 (SLCO2B1): 74 µM

CC1(C)[C@@H](O[C@H]2O[C@H](C(=O)O)[C@@H](O)[C@H](O)[C@H]2O[C@@H]2O[C@H](C(=O)O)[C@@H](O)[C@H](O)[C@H]2O)CC[C@]2(C)[C@H]3C(=O)C=C4[C@@H]5C[C@@](C)(C(=O)O)CC[C@]5(C)CC[C@@]4(C)[C@]3(C)CC[C@@H]12 [Glycyrrhizin]
Ki/IC50 (SLCO1B1; Table 1, predicted target SLCO1B1): 13 µM

CCCCCCCCCCCCCCCC(=O)O [Palmitic acid]
Ki/IC50 Or EC50 (PDE4D; Table 2, PDE4D, accurate to ±20%): 6.6 µM | Ki/IC50 Or EC50 (PDE3A): 4.1 µM | Ki/IC50 Or EC50 (SLC18A2): 4.4 µM

C[CH2][Hg][S]c1ccccc1C(=O)[O-].[Na+] [Thimerosal]
striatal D2 receptor density (immunohistochemistry) (rats; rats ref 48): decline in striatal D2 receptor density | behavioral effects (rats; rats treated postnatally ref 48): impaired locomotor function, increased anxiety/neophobia in the open field, and alterations in social behavior | effect on serotonergic and dopaminergic systems (rat brain): impaired the serotonergic and dopaminergic systems in the rat brain | pIC50 (DRD3; Table 4, target DRD3): 6.49 | pKd (DRD3): 6.49

Cc1ccc(C(C)C)c(O)c1 [Thymol]
Ki/IC50 Or EC50 (SLC6A2): 28 µM | Ki/IC50 Or EC50 (SLC18A2): 25 µM | Ki/IC50 Or EC50 (ADRA1A): 26 µM | Ki/IC50 Or EC50 (CHRM1): 14 µM

CNC1(c2ccccc2Cl)CCCCC1=O (stereo not drawn) [ketamine]
hERG activity (hERG ion channel): no detectable hERG activity

CC(O)CO (stereo not drawn) [propylene glycol]
activity in the BioMAP cell-based systems ([5]; 1.1, 3.3, 10, 30 μM): no measurable activity

Source: publication PMC7960226 (Science (New York, N.Y.), 2020)
